# Experimental data: article PMC10714399, “Open Source Antibiotics: Simple Diarylimidazoles Are Potent against Methicillin-Resistant Staphylococcus aureus” (ACS Infectious Diseases, 2023)
# Where “and” joins values, the source holds several entries; their conditions need not be identical. Identical values can stand only once. Like-named read-outs stand apart in the source and are kept apart here.
# Legend:
# [1] = Human plasma protein binding (PPB); type: in vitro ADME; conditions: human, plasma
# Description: (§1) To guide our initial SAR exploration work, we obtained liver microsomal intrinsic clearance data for 5 of the 18 compounds assayed by CO-ADD (Supporting Information - CDCO Report and Supporting Information - Biology). We then acquired intrinsic clearance (CLint), plasma protein binding (PPB), and solubility data on further compounds throughout the SAR campaign (Supporting Information - Biology, Tables S3 and S4).
# (§2) Table S4. ADME and Pharmacokinetics: compounds only appearing in the Supplementary […]
# (§3) MRSA Aqueous HLM CLint Rat Hep CLint
# (§4) Cmpd MIC Solubility Human PPB (%) (µL/min/mg (µL/min/10x6 LogD7.4
# (§5) (µg/mL) (µM) protein) cells)
# (§6) ADME and toxicity for compounds were measured according to procedures outlined in the manuscript submitted in parallel to this one;2 other procedures were used for those compounds analysed by Monash University (in vitro ADME) or UCL (toxicity), both described in the main
# [2] = Human liver microsome intrinsic clearance; type: in vitro ADME; conditions: human liver microsomes, NEU
# Description: as §1, §2, §3, §4, §5, §6
# Aqueous solubility = type: physicochemical; conditions: thermodynamic from solid
# Description: as §1, with “S4). […] The more polar compounds (lower LogD) had reduced PPB and were more metabolically stable.” for “S4).”
# as §2, §3, §4, §5, §6
# [3] = tested on: Staphylococcus aureus NCTC 13373 (mecA-positive; methicillin-resistant); assay: In vitro antibacterial activity, MIC (UCL School of Pharmacy assay), MRSA; type: cell-based; conditions: for MIC: Staphylococcus aureus
# Summary of the method: (§7)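 Broth microdilution MIC in isosensitest broth; inoculum from overnight tryptone soya agar culture suspended in PBS to A600 0.1 (~1 × 10^8 CFU/mL), then diluted 1:100. Compounds tested as 2-fold series from 32 to 0.03 μg/mL, DMSO at most 2%; vancomycin as quality control.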
# [4] = Rat hepatocyte intrinsic clearance; type: in vitro ADME; conditions: rat hepatocytes, NEU
# Description: as §1, §2, §3, §4, §5, §6
# [5] = tested on: Enterococcus faecalis ATCC 51299 (vanA-positive; vancomycin-resistant); assay: In vitro antibacterial activity, MIC (UCL), VRE; type: cell-based
# Experimental: Staphylococcus aureus NCTC 13373 (mecA-positive; methicillin-resistant, NCTC 13373) was supplied by the National Collection of Type Cultures (NCTC), Public Health England, United Kingdom. Other organisms, S. aureus ATCC 25923 (methicillin-susceptible) and Enterococcus faecalis ATCC 51299 (vanA-positive; vancomycin-resistant), were obtained from the American Type Culture Collection (ATCC) via LGC Standards, UK. A suspension of each organism was prepared from an overnight plate culture (tryptone soya agar) in phosphate-buffered saline (PBS) and adjusted to an absorbance reading at 600 nm of 0.1, which is approximately equivalent to 1 × 10^8 colony-forming units (CFU) per mL. The cultures were further diluted 1:100 in isosensitest broth (Oxoid, United Kingdom) before 100 μL was used to inoculate each well of a 96-well plate that contained diluted samples of the OSA series. Compounds were evaluated over a 2-fold dilution range from 32 to 0.03 μg/mL. Stocks of the samples were prepared in 100% DMSO at […] before being diluted in isosenstitest broth. The highest concentration of DMSO present was 2%, which has been previously shown not to inhibit the growth of the microorganisms (data not shown). […] Vancomycin was used as a quality control compound.
# [6] = tested on: S. aureus ATCC 25923 (methicillin-susceptible); assay: In vitro antibacterial activity, MIC (UCL), MSSA; type: cell-based, Staphylococcus aureus; conditions: for MIC: Staphylococcus aureus
# Summary of the method: as §7
# [7] = tested on: PMM (primary mouse macrophages); assay: Toxicity against PMM; type: cell-based
# Experimental: as §6
# [8] = tested on: MRC-5SV2 (human lung fibroblast cell line); assay: Toxicity against MRC-5SV2; type: cell-based
# Experimental: as §6
# [9] = human plasma, NEU, read-out: Human PPB (NEU) (converted)
# [10] = NEU, read-out: Aqueous Solubility (NEU)
# [11] = UCL assay, read-out: MRSA MIC (ug/mL) (UCL)
# [12] = UCL assay, read-out: MSSA MIC (ug/mL) (UCL)
smiles,measurement,setting,value
FC(F)(F)Oc1ccc(-c2c(-c3ccccn3)nc3n2CCC3)cc1 [OSA_000868],fraction unbound,[1]; [9],0.044
same,HLM CLint (NEU),[2],62.2 uL/min/mg protein
same,solubility,Aqueous solubility; [10],38 µM
same,MIC,"[3]; UCL, read-out: MRSA MIC (UCL)",8 µg/mL
same,Rat Hep CLint (NEU),[4],54.1 uL/min/10x6 cells
same,MIC,[5]; read-out: VRE MIC (UCL),32 µg/mL
COc1ccnc(-c2nc3ccccn3c2N(C)c2ccc(F)cc2)c1 [OSA_001007],fraction unbound,[1]; [9],0.025
same,microsomal CLint,[2]; read-out: HLM CLint (NEU),214 µL/min/mg
same,solubility,Aqueous solubility; [10],26 µM
same,MIC,"[3]; UCL, read-out: MRSA MIC (UCL)",8 µg/mL
same,hepatocyte CLint,[4]; read-out: Rat Hep CLint (NEU),> 300 µL/min/1e6 cells
same,MIC,[6]; read-out: MSSA MIC (UCL),8 µg/mL
COc1ccn2c(-c3ccc(F)cc3)c(-c3ccccn3)nc2c1 [compound 858],PMM TC50,[7],2.6 µg/mL
same,MRSA MIC,[3],16 µg/mL
same,VRE MIC,[5],> 32 µg/mL
same,MRC5 TC50,[8],1.2 µg/mL
COc1ccn2cc(-c3ccccn3)nc2c1 [compound 856],PMM TC50,[7],14.4 µg/mL
same,MRSA MIC,[3],> 32 µg/mL and 32 µg/mL
same,VRE MIC,[5],> 32 µg/mL
same,MRC5 TC50,[8],11.6 µg/mL
COc1ccn2c(-c3ccccc3)c(-c3ccccn3)nc2c1 [compound 860],PMM TC50,[7],2.4 µg/mL
same,MRSA MIC,[3],8 µg/mL
same,VRE MIC,[5],32 µg/mL
same,MRC5 TC50,[8],1.2 µg/mL
c1ccc(-c2nc3n(c2-c2ccc4sc5ccccc5c4c2)CCC3)nc1 [OSA_000831],fraction unbound,[1]; [9],0.0008
same,HLM CLint (NEU),[2],42.6 uL/min/mg protein
same,solubility,Aqueous solubility; [10],3 µM
same,MIC,"[3]; UCL, read-out: MRSA MIC (UCL)",8 µg/mL
same,Rat Hep CLint (NEU),[4],151 uL/min/10x6 cells
Cc1nc2cc(-c3c(-c4ccccn4)nc4n3CCC4)ccc2s1 [OSA_000836],fraction unbound,[1]; [9],0.098
same,HLM CLint (NEU),[2],34.1 uL/min/mg protein
same,solubility,Aqueous solubility; [10],10 µM
same,MIC,"[3]; UCL, read-out: MRSA MIC (UCL)",32 µg/mL
same,Rat Hep CLint (NEU),[4],49.1 uL/min/10x6 cells
Fc1cccc(-c2c(-c3ccccn3)nc3n2CCC3)c1 [compound 872],PMM TC50,[7],15.3 µg/mL
same,MRSA MIC,[3],32 µg/mL
same,MIC,[3]; read-out: MRSA MIC,> 32 µg/mL
same,MIC,[5]; read-out: VRE MIC,> 32 µg/mL
same,MRC5 TC50,[8],2.0 µg/mL
N#Cc1ccc(-c2c(-c3ccccn3)nc3n2CCC3)cc1 [compound 975],fraction unbound,[1]; read-out: Human PPB (converted),0.29
same,PMM TC50,[7],18.3 µg/mL
same,solubility,Aqueous solubility; read-out: Aqueous Solubility,38 µM
same,MIC,"[3]; 16 h, read-out: MRSA MIC",4 µg/mL
same,MIC,[3]; read-out: MRSA MIC,4 µg/mL
same,MIC,[5]; read-out: VRE MIC,16 µg/mL
same,MRC5 TC50,[8],7.4 µg/mL
[2H]C([2H])([2H])N(c1ccc(F)cc1)c1c(-c2ccccn2)nc2ccccn12 [OSA_001002],solubility,Aqueous solubility; [10],116 µM
same,MIC,"[3]; UCL, read-out: MRSA MIC (UCL)",16 µg/mL
same,MIC,[6]; read-out: MSSA MIC (UCL),16 µg/mL
COc1ccc(-c2nc3ccccn3c2Nc2ccc(F)cc2)nc1 [OSA_001022],solubility,"Aqueous solubility; NEU, read-out: Aqueous Solubility (uM) (NEU)",3 µM
same,MIC,[3]; [11],8 µg/mL
same,MIC,[6]; [12],8 µg/mL
Clc1ccc(-c2c(-c3ccccn3)nc3n2CCC3)cc1 [compound 875],PMM TC50,[7],2.4 µg/mL
same,MIC,[3]; read-out: MRSA MIC,4 µg/mL
same,MIC,[5]; read-out: VRE MIC,16 µg/mL
same,MRC5 TC50,[8],1.6 µg/mL
Cc1ccc2nc(-c3ccccc3)c(CNc3ccc(F)cc3)n2c1 [compound 1027],PMM TC50,[7],21.2 µg/mL
same,MRSA MIC,[3],> 32 µg/mL and 32 µg/mL
same,MRC5 TC50,[8],21.2 µg/mL
same,MSSA MIC,[6],> 32 µg/mL
Fc1cccc(-c2c(-c3ccccn3)nc3n2CCC3)c1 [OSA_000872],PMM TC50,[7]; PMM,54.63 µM
same,MIC,"[3]; UCL, read-out: MRSA MIC (UCL)",> 32 µg/mL
same,MIC,[5]; read-out: VRE MIC (UCL),> 32 µg/mL
same,MRC5 TC50,[8]; MRC5 cells,7.2 µM
Fc1ccc(-c2c(-c3ccccn3)nc3n2CCC3)cc1 [OSA_001053],PMM TC50,[7]; PMM,32 µM
same,MIC,[3]; [11],> 32 µg/mL
same,MRC5 TC50,[8]; MRC5 cells,7.55 µM
same,MIC,[6]; [12],> 32 µg/mL
COc1ccn2c(Nc3ccccc3F)c(-c3cnn(C)c3)nc2c1 [compound 855],PMM TC50,[7],21.6 µg/mL
same,MRSA MIC,[3],> 32 µg/mL and 32 µg/mL
same,VRE MIC,[5],> 32 µg/mL
same,MRC5 TC50,[8],21.6 µg/mL
c1ccc(-c2nc3n(c2-c2ccncc2)CCC3)nc1 [OSA_001072],PMM TC50,[7]; PMM,64 µM
same,MIC,[3]; [11],> 32 µg/mL
same,MRC5 TC50,[8]; MRC5 cells,64 µM
same,MIC,[6]; [12],> 32 µg/mL
